Assay results reported in article PMC8147781, “Discovery of Pyrrolidine-2,3-diones as Novel Inhibitors of P. aeruginosa PBP3” (Antibiotics, 2021).
Converted amounts (≈) assume the structure as drawn.

How the values were obtained:
[1] = test system: P. aeruginosa K2896 ΔmexBΔmexXYΔmexCD-oprJ; experiment: MIC broth microdilution, P. aeruginosa K2896 efflux mutant; assay type: cell-based, Pseudomonas aeruginosa
Excerpt: (§1) The results presented above implied that seven pyrrolidine-2,3-dione derivatives inhibited the activity of ^PaPBP3 in vitro. Consequently, we were very interested in investigating the potential of these compounds to affect the growth of P. aeruginosa. Two P. aeruginosa bacterial strains (the wild-type PAO1 and the isogenic ΔmexB ΔmexX ΔmexCD-oprJ efflux pump mutant) were used to determine the MIC and the potential role of the main P. aeruginosa efflux systems in compound uptake. To increase the antibacterial sensitivity of the tested P. aeruginosa isolates to the potential inhibitors, we performed MIC experiments in the presence and absence of a sub-MIC concentration (4 µg/mL) of the outer membrane permeabilising polymyxin B nonapeptide (PMBN). […] Thus, we concluded that the physicochemical properties of the pyrrolidine-2,3-dione compounds were perhaps not yet favourable enough to cross the P. aeruginosa cell envelope without a permeabiliser because of their high hydrophobicity.
(§2) The wild-type P.aeruginosa PAO1 and the isogenic P. aeruginosa K2896 ΔmexBΔmexXYΔmexCD-oprJ isolates were used to determine the MIC in the presence and absence of PMBN [48].
(§3) MIC determination was performed via standard broth microdilution according to the Clinical & Laboratory Standards institute guidelines. Overnight colonies grown on BD-Columbia agar with 5% Sheep Blood (Becton Dickinson, Franklin Lakes, NJ, USA), were diluted in Mueller Hinton Broth 2 cation adjusted (MH+) medium (Thermo Fisher Scientific) to a concentration of 5 × 10^5 CFU/mL. Serial dilutions (1:2) of test compounds were incubated at 37 °C with 5 × 10^4 bacteria in a final volume of 100 μL. Sterile and growth controls in the presence of 1% DMSO and PMBN if the case, and the positive controls, aztreonam (AZT) and tigecycline (TIG) were included in the experiments (Table S4). The MICs were determined visually after 18 h at 37 °C and confirmed by the addition of 10% PrestoBlue (ThermoFisher Scientific) reagent according to the manufacture’s protocol. The fluorescence signal of PrestoBlue reagent was measured at Ex/Em: 550/595 nm after 30 min incubation at 37 °C using at a ClarioStar microplate reader (BMG Labtech). PrestoBlue reduction occurs in the presence of living cells and consequently turns red in colour and is highly fluorescent.

E. coli Neumann = experiment: MIC broth microdilution, E. coli; assay type: cell-based; settings: Escherichia coli; PMBN 0 µg/mL, control compounds; read-out: MIC (µM) E. coli Newmann
Description: as §3

B. subtilis 168 = experiment: MIC broth microdilution, B. subtilis; assay type: cell-based; settings: Bacillus subtilis, 168, 18 h; PMBN 0 µg/mL, control compounds
Description: as §3

[2] = test system: P. aeruginosa PAO1 (wild-type strain); experiment: MIC broth microdilution, P. aeruginosa PAO1; assay type: cell-based, Pseudomonas aeruginosa
Excerpt: as §1, §2, §3

[3] = test system: K. pneumoniae clinical isolate; experiment: MIC broth microdilution, K. pneumoniae; assay type: cell-based; settings: control compounds
Description: as §3

A. baumannii ATCC15308 = experiment: MIC broth microdilution, A. baumannii; assay type: cell-based; settings: Acinetobacter baumannii, control compounds
Description: as §3

S. pneumoniae = experiment: MIC broth microdilution, S. pneumoniae; assay type: cell-based; settings: Streptococcus pneumoniae, 18 h; PMBN 0 µg/mL, control compounds; read-out: MIC (µM) S. pneumoniae
Description: as §3

S. aureus 133 = experiment: MIC broth microdilution, S. aureus; assay type: cell-based; settings: Staphylococcus aureus, 133, 18 h; PMBN 0 µg/mL, control compounds
Description: as §3

[4] = target: T1, PBP3 of P. aeruginosa (PaPBP3) (Pseudomonas aeruginosa, UniProt G3XD46); experiment: S2dfluo fluorescence transpeptidase assay; assay type: biochemical; settings: for IC50: 300 nM PaPBP3, 30 min preincubation, 37 °C, read-out: IC50 Determination with PaPBP3, S2dfluo Assay; for inhibition at 100 µM: read-out: PBP3 Inhibition at 100 µM (%)
T1 construct: P. aeruginosa PBP3 (amino acids 40 to 563); His-tag; made in house; host or cells: E. coli BL21 (DE3) Rosetta, plasmid pET41_PBP-3
T1 sequence (G3XD46 40-563): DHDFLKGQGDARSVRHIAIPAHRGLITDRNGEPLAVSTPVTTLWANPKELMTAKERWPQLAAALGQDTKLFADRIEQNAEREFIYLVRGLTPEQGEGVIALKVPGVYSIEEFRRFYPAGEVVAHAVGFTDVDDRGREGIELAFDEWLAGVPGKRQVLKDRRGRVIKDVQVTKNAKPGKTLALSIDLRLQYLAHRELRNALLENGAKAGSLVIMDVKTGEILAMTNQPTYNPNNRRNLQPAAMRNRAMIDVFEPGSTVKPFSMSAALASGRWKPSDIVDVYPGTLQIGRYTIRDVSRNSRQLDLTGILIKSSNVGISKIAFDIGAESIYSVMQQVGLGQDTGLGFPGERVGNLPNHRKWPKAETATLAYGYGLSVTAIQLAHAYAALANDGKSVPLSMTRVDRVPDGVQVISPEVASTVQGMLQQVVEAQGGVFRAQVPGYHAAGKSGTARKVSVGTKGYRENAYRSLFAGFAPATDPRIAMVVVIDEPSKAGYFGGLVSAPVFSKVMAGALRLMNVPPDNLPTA
Description: The assays were carried out in the presence of 5% DMSO and 0.01% Triton X100 to avoid the formation of colloidal structures and adsorption of protein and/or compounds to surfaces. The Z’-factor determined for the assay was 0.73 ± 0.28, indicating the suitability and robustness of the assay for high throughput screening (HTS) (Figure 1B,C).
The activity of soluble ^PaPBP3 (300 nM) was measured in the presence of 0.8 mM S2d, 1 mM D-alanine and 0.5 mM mBBr for 25 min by monitoring the increase in the fluorescence intensity of mBBr at Ex/Em: 394/490 nm using an Infinite M1000 microplate reader (Tecan, Männedorf, Switzerland). To test the effect of inhibitors, 100 µM or 0.8 to 100 µM of compounds diluted in 96% DMSO were incubated for 30 min and 450 rpm with 300 nM soluble PBP3. The incubation period was set to improve the binding of non-covalent inhibitors and 0.01% Triton X100 (Sigma-Aldrich, Taufkirchen, Germany) was added to prevent aggregation of compounds. The enzyme reaction was started by adding a substrate mix of 0.8 mM S2d and […]. The enzyme, compound and substrate mix were mixed 1:1, pipetted with a Liquidator 96 (Melter Toledo, Gießen, Germany) and the fluorescence intensity was directly monitored with an Infinite M1000 microplate reader (Tecan) at Ex/Em: 394/490 nm. The assay was performed in black, flat-bottom 96-well microplates (Greiner Bio-One, Kremsmünster, Austria) at 37 °C in Sorensen Phosphate Buffer (57 mM Na2HPO4 and 10 mM KH2PO4, pH 7.5 + 0.01% Triton X-100). The velocity of the PBP3 reaction was calculated in the presence of each concentration of compound and the velocity values were used to estimate IC50 by sigmoidal nonlinear regression, using Prism v.9 software (San Diego, CA, USA) and the velocity of the reaction at each concentration.

[5] = target: T1, PBP3 of P. aeruginosa (PaPBP3); experiment: FP-Bocillin FL competition assay; assay type: binding; settings: 30 min preincubation before Bocillin FL, 37 °C; for IC50: read-out: IC50 Determination with PaPBP3, FP-Bocillin FL Assay
Description: Bocillin FL is a fluorescent penicillin V derivate used as a competitor for PBP inhibitors.
Fluorescence polarisation (FP) experiments were carried out as described before. To determine the binding of Bocillin FL to PBP, 200 nM of ^PaPBP3 was incubated for 30 min with 100 nM of Bocillin FL (Thermo Fisher Scientific, Waltham, MA, USA). The fluorescence polarisation signal of free Bocillin FL was monitored in a Pherastar microplate reader (BMG Labtech, Ortenberg, Germany) in the polarisation mode with Ex/Em: 485/520 nm excitation and emission filters. Millipolarisation (mP) units were calculated using the MARS data analysis software v30.40.R2 (BMG Labtech, Ortenberg, Germany). All the experiments were done in Sorensen buffer at 37 °C using flat-bottom, black 96-well plates. […] Bocillin FL was diluted in Sorensen buffer and added to the reaction and directly measured for 30 min at 37 °C. The FP was continuously measured in the presence and absence of compound and enzyme. […] The estimated IC50 values were established by sigmoidal nonlinear regression, using Prims v.8 software.

Row | Compound | IC50 [4] | inhibition at 100 µM [4] | IC50 [5] | IC50 Determination with PaPBP3, FP-Bocillin FL Assay [5] | other results
1 | C[C@H]1[C@H](NC(=O)/C(=N\OC(C)(C)C(=O)O)c2csc(N)n2)C(=O)N1S(=O)(=O)O [Aztreonam, aztreonam, reference compound] |  |  |  |  | MIC ([1]; Pseudomonas aeruginosa, read-out: MIC (µM) P. aeruginosa K2896): 0.575 µM (≈ 0.25 µg/mL); MIC (µM) against P. aeruginosa K28926 ([1]; ΔmexB, ΔmexX, ΔmexCD-oprJ, with 4 µg/mL PMBN): 0.29 µM (≈ 0.126 µg/mL); MIC (E. coli Neumann): 0.287 µM (≈ 0.125 µg/mL); MIC (B. subtilis 168): > 1.2 µM; MIC ([2]; Pseudomonas aeruginosa, PAO1, PMBN 0 µg/mL (absence of PMBN)): > 1.2 µM; MIC (µM) against P. aeruginosa PAO1 ([2]; wild-type strain, with 4 µg/mL PMBN): 0.58 µM (≈ 0.253 µg/mL); MIC ([3]; PMBN 0 µg/mL): 0.143 µM (≈ 0.0623 µg/mL); MIC ([3]; PMBN 50 µg/mL): 0.071 µM (≈ 0.0309 µg/mL); MIC (A. baumannii ATCC15308; ATCC15308, PMBN 0 µg/mL): > 1.2 µM; MIC (A. baumannii ATCC15308; ATCC15308, PMBN 50 µg/mL): 0.58 µM (≈ 0.253 µg/mL); MIC (S. pneumoniae): > 1.2 µM; MIC (S. aureus 133): > 1.2 µM
2 | CCCCCCOc1cccc(N2C(=O)C(O)=C(C(=O)c3ccccc3)C2c2ccc(C(C)C)cc2)c1 (stereo not shown) [Compound 2] | 4 ± 6 µM | 101 ± 0.4% | 17 ± 9 µM |  | 
3 | CCCCCCOc1cccc(N2C(=O)C(O)=C(C(=O)c3ccccc3)C2c2ccccc2F)c1 (stereo not shown) [Compound 3] | 19 ± 1 µM | 100 ± 0.8% | > 100 µM | failed to inhibit Bocillin FL binding | 
4 | CCOC(=O)c1ccc(N2C(=O)C(O)=C(S(=O)(=O)c3ccccc3)C2c2ccc(C(C)C)cc2)cc1 (stereo not shown) [Compound 4] | 24 ± 20 µM | 101% | > 100 µM | failed to inhibit Bocillin FL binding | 
5 | COc1ccc(N2C(=O)C(O)=C(C(=O)c3ccc4c(c3)OCO4)C2c2ccc(Br)cc2)cc1 (stereo not shown) [Compound 5] | 61 ± 1 µM |  | 69 ± 13 µM |  | 
